{
  "source": "patent US10881653B2",
  "about": "“Tricyclic compounds and their use in the treatment of cancer” (The United States of America, as represented by the …, priority 2015, dated 2021)",
  "key": {"[1]": {"target": "T1, recombinant thioredoxin reductase 1 (TrxR1) (Homo sapiens, UniProt Q16881)", "T1 sequence (Q16881 1-649)": "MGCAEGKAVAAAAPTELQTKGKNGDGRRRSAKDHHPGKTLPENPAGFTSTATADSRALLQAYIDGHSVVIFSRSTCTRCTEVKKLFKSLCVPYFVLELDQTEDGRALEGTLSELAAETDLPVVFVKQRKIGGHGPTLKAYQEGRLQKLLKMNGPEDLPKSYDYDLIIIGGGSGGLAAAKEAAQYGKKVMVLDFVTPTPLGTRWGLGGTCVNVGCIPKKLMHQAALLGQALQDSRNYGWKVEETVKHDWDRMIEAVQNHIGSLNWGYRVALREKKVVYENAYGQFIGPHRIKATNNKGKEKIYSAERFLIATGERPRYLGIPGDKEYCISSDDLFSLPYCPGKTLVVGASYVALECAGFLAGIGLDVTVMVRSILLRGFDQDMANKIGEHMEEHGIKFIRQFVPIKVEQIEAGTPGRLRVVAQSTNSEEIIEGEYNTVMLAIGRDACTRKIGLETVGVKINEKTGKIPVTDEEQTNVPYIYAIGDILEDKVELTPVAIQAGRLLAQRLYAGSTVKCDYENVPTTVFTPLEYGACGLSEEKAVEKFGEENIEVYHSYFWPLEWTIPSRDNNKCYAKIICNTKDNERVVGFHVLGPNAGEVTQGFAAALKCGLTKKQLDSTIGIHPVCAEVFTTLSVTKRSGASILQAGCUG", "assay": "Inhibition of recombinant TrxR1 (DTNB assay)", "assay_type": "biochemical", "procedure,_shortened": "(§1)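 Human TrxR1 (15 nM) or GR (2 nM) preincubated 15 min with compound, 250 μM NADPH, 0.1 mg/ml BSA in 50 mM Tris pH 7.5, 2 mM EDTA, 1% DMSO. Reaction started with 2.5 mM DTNB (TrxR1, A412) or 1 mM GSSG (GR, A340). Percent activity relative to DMSO and no-enzyme blanks.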"}, "[2]": {"test_system": "FaDu cells", "settings": "mouse, in vivo, 15 mg/kg", "method": "Fox Chase male severe combined immunodeficiency (SCID, Charles River, #250) mice were inoculated with 1×10^6 FaDu cells in PBS at a pre-shaved region located at the anterior lateral thoracic wall. After 13 days of growth, tumors were caliper measured and treatments were initiated. Mice were injected with 15 mg/kg of the compound of Example 1, or vehicle a total of nine times in a five-day span via i.v. tail injection. Upon the final dose, injections were performed subcutaneously (s.c.) due to pronounced hematomas at the tail injection site. Mouse health status was monitored daily, weight was measured, and tumor volume was recorded from caliper measurements. […] Tumor growth was normalized to day 0 caliper measurements, and treatment with the compound of Example 1 (N=6, p<0.01) was compared to vehicle (N=4) using a repeated measures ANOVA with a Dunnett's multiple comparison post test."}, "[3]": {"target": "T2, gluthathione reductase (GR) (Homo sapiens, UniProt P00390)", "T2 sequence (P00390 44-522)": "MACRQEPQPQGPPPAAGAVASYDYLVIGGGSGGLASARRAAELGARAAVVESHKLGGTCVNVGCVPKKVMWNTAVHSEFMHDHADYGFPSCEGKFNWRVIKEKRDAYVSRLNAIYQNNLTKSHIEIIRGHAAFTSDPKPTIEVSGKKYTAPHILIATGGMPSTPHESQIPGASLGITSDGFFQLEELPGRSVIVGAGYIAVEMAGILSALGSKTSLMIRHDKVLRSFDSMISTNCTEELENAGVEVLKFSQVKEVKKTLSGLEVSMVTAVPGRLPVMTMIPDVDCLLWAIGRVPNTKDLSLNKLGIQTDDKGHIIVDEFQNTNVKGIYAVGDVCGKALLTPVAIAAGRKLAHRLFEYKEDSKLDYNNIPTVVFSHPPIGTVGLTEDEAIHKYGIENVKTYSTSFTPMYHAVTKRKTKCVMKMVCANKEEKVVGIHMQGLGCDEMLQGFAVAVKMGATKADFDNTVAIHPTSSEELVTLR", "assay": "Inhibition of recombinant GR (GSSG assay)", "assay_type": "biochemical", "procedure,_shortened": "as §1"}, "[4]": {"test_system": "CAKI-1", "assay": "Cell growth inhibition GI50", "assay_type": "cell-based", "settings": "Homo sapiens, Renal Cancer", "method": "(§2) Cell lines were plated 2000 cells/well in 96-well black optical plates in the presence of 10% FBS media containing 25 nM selenite. The following day cells were treated with various concentrations of the compound of Example 1 (0.1% DMSO final) and incubated for 72 hrs. After the incubation Cell-Quanti Blue reagent was added to each well and incubated for additional 3 hrs. Fluorescence was read ex:530 nm/em:590 nm, and percent of viability was determined using DMSO vehicle and no cell (blank) controls.\n(§3) Further results obtained in similar experiments were as indicated below (GI50 refers to concentration of compound yielding 50% growth inhibition; E denotes an exponent to the base 10)."}, "[5]": {"test_system": "NCI-H460", "assay": "Cell growth inhibition GI50", "assay_type": "cell-based", "settings": "Homo sapiens, Non-Small Cell Lung Cancer", "method": "as §2, §3"}, "[6]": {"test_system": "OVCAR-3", "assay": "Cell growth inhibition GI50", "assay_type": "cell-based", "settings": "Homo sapiens, Ovarian Cancer", "method": "as §2, §3"}, "[7]": {"test_system": "SK-MEL-28", "assay": "Cell growth inhibition GI50", "assay_type": "cell-based", "settings": "Homo sapiens, Melanoma", "method": "as §2, §3"}, "[8]": {"test_system": "K-562", "assay": "Cell growth inhibition GI50", "assay_type": "cell-based", "settings": "Homo sapiens, K562, Leukemia", "method": "as §2, §3"}, "[9]": {"test_system": "LOX IMVI", "assay": "Cell growth inhibition GI50", "assay_type": "cell-based", "settings": "Homo sapiens, Melanoma", "method": "as §2, §3"}, "[10]": {"test_system": "RPMI-8226", "assay": "Cell growth inhibition GI50", "assay_type": "cell-based", "settings": "Homo sapiens, Leukemia", "method": "as §2, §3"}, "[11]": {"test_system": "SNB-75", "assay": "Cell growth inhibition GI50", "assay_type": "cell-based", "settings": "Homo sapiens, CNS Cancer", "method": "as §2, §3"}, "[12]": {"test_system": "SK-MEL-5", "assay": "Cell growth inhibition GI50", "assay_type": "cell-based", "settings": "Homo sapiens, Melanoma", "method": "as §2, §3"}, "[13]": {"test_system": "SW-620", "assay": "Cell growth inhibition GI50", "assay_type": "cell-based", "settings": "Homo sapiens, Colon Cancer", "method": "as §2, §3"}},
  "note": "Structures can show the parent of a compound that is named as a salt. Where two headings read alike, the source gives them in different places.",
  "data": [
    {"smiles": "O=C1C=C[C@H]2[C@@H]3C(=O)N(c4ccccc4)C(=O)[C@@H]3[C@@H]1N2Cc1ccccc1", "note": "(relative stereo) [Example 1, exo-11-Benzyl-4-phenyl-4,11-diazatricyclo[5.3.1.0^2,6]undec-9-ene-3,5,8-trione Trifluoroacetate]", "values": [
      {"measurement": "IC50", "setting": "[1]; Biological Example 1, 15 nM TrxR1, 250 μM NADPH, 15 minutes incubation, read-out: TrxR inhibition", "value": 2.14, "unit": "µM"},
      {"measurement": "IC50", "setting": "[1]; Biological Example 4, assays of Biological Example 1, read-out: TrxR Inhibition", "value": 2.19, "unit": "µM"},
      {"measurement": "Signs of general or systemic toxic effects", "setting": "[2]", "value": "no overt signs of general or systemic toxic effects in normal cells or tissues"},
      {"measurement": "IC50", "setting": "[3]; Biological Example 1, 2 nM GR, 250 μM NADPH, 15 minutes incubation", "value": "> 100", "unit": "µM"},
      {"measurement": "IC50", "setting": "[3]; Biological Example 4, assays of Biological Example 1", "value": "> 100", "unit": "µM"},
      {"measurement": "GI50", "setting": "[4]", "value": 4.09, "unit": "µM"},
      {"measurement": "GI50", "setting": "[5]", "value": 3.49, "unit": "µM"},
      {"measurement": "GI50", "setting": "[6]", "value": 3.44, "unit": "µM"},
      {"measurement": "GI50", "setting": "[7]", "value": 3.01, "unit": "µM"},
      {"measurement": "GI50", "setting": "[8]", "value": 1.67, "unit": "µM"},
      {"measurement": "GI50", "setting": "[9]", "value": 1.61, "unit": "µM"},
      {"measurement": "GI50", "setting": "[10]", "value": 1.59, "unit": "µM"},
      {"measurement": "GI50", "setting": "[11]", "value": 4.19, "unit": "µM"},
      {"measurement": "GI50", "setting": "[12]", "value": 3.56, "unit": "µM"},
      {"measurement": "GI50", "setting": "[13]", "value": 1.86, "unit": "µM"}
    ]}
  ]
}
